Test results reported in publication PMC9824296, “Functional Characterization of Three Diterpene Synthases Responsible for Tetracyclic Diterpene Biosynthesis in Scoparia dulcis” (Plants, 2022).

Columns and labels:
OsKSL4 = target: T1, OsKSL4 (Oryza sativa, UniProt Q0JEZ8); assay: GC-MS of n-hexane extract of recombinant E. coli cultures; assay type: cell-based; conditions: reference enzyme; syn-CPP supplied by co-expressed SdCPS2 or OsCPS4 with SdGGPPS; 16 °C; product 7
T1 construct: gene KSL4; in pET28b (NcoI/NotI), expressed in E. coli C41
T1 sequence (Q0JEZ8 57-842): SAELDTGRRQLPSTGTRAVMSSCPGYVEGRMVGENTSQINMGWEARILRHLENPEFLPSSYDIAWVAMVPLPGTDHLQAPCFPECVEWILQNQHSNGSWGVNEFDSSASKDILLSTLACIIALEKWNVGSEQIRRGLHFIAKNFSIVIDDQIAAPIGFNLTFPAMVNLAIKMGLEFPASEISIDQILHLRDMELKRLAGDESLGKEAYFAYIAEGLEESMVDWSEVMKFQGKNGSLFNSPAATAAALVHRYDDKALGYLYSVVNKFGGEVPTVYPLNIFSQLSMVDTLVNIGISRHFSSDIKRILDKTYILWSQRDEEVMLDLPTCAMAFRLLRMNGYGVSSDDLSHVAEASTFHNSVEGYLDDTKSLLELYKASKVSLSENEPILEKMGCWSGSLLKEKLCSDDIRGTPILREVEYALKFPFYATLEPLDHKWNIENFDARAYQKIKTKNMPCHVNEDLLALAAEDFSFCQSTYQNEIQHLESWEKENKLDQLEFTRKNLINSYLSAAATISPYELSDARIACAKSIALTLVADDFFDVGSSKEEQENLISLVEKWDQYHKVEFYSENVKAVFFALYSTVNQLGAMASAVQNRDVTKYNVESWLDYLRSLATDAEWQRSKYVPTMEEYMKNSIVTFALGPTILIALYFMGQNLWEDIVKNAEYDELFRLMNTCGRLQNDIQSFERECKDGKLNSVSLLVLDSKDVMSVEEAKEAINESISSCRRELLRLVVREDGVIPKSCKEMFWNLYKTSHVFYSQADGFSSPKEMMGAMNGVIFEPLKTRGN

SdCPS2 = target: T2, SdCPS2 (Scoparia dulcis, UniProt A0A1U8XUA9); assay: as above; assay type: cell-based; conditions: GGPP supplied by co-expressed SdGGPPS; 16 °C; product seen as dephosphorylated alcohol
T2 construct: gene CPS2; full ORF 2412 bp, 804 residues
T2 sequence (A0A1U8XUA9 81-804): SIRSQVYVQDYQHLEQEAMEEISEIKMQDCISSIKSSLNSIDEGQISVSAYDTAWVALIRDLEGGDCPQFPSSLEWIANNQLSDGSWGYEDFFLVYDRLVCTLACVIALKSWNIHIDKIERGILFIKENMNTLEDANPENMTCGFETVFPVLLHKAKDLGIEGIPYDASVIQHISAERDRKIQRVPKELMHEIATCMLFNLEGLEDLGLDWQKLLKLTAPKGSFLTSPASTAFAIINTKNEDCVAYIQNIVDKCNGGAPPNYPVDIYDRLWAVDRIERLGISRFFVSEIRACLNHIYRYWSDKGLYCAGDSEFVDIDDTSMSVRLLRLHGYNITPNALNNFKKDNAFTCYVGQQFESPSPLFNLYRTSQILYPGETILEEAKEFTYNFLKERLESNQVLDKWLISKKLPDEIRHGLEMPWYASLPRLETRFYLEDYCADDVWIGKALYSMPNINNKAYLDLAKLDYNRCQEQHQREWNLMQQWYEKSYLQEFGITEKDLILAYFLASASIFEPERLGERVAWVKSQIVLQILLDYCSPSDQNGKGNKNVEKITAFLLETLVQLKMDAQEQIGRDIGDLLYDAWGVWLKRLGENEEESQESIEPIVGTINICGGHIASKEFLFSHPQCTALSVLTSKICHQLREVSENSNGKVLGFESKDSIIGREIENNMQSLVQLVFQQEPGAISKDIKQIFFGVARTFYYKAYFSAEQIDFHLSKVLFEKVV

C=C1CC[C@H]2C(C)(C)CCC[C@]2(C)[C@@H]1CC/C(C)=C/COP(=O)(O)OP(=O)(O)O [compound 3, syn-copalyl diphosphate]
GC-MS of n-hexane extract of recombinant E. coli cultures (OsKSL4): SdCPS2 could be cyclized by OsKSL4, whose substrate is a syn-copalyl diphosphate

CC(C)=CCC/C(C)=C/CC/C(C)=C/CC/C(C)=C/COP(=O)(O)OP(=O)(O)O [compound 2, geranylgeranyl diphosphate]
GC-MS of n-hexane extract of recombinant E. coli cultures (SdCPS2): The SdCPS2 catalyzed a cyclization reaction from GGPP to syn-CPP
